For experiment [1], the system named is neurons in rat cerebrocortical cultures (gp120-induced apoptosis). Description: gp120-induced neuronal apoptosis in rat cerebrocortical cultures. The format is cell-based, Sprague-Dawley rats. The note with it: for effect on neuronal apoptosis induced by gp120: gp120 200 pM, 24 h. The procedure: The model used in the assays described below, i.e., rat cerebrocortical cultures, was prepared from embryos of Sprague-Dawley rats at day 15 to 17 of gestation. See Lei et al., Neuron 8:1087-1099 (1992) and Lipton et al., Nature 364:626-632 (1993). Cultures were used for experiments after 17 to 24 days in culture. […] Prior to some experiments, macrophages/microglia or neurons were depleted from the cultures by exposure to 7.5 mM L-leucine methyl ester or 2 mM N-methyl-D-aspartate (NMDA), respectively. See Lipton, NeuroReport 3:913-915 (1992). […] In some experiments, the Griess reaction was used to measure nitrite levels in the culture medium as an index of nitric oxide (NO) release. See Chao et al., Glia 16:276-284 (1996).
Cultures were transferred into Earle's Balanced Salt Solution (EBSS) and incubated for 24 hours with gp120, chemokines, Tuftsin fragment 1-3, i.e., Thr-Lys-Pro (TKP), p38 MAPK inhibitor SB 203580 (i.e., 4-(4-fluorophenyl)-2-(4-methylsulfinylphenyl)-5-(4-pyridyl)imidazole, Calbiochem, San Diego, Calif.), or combinations thereof. Chemokines or TKP were applied for 5 minutes and SB 203580 for 15 minutes prior to gp120 exposure.
TKP was obtained from Sigma (St. Louis, Mo.). Recombinant human MIP-1β, SDF-1α, SDF-1β, and recombinant rat RANTES were purchased from R&D systems ([…].) and Endogen (Woburn, Mass.), respectively. HIV-1 envelope glycoprotein gp120 from the strain SF2 was obtained from the NIH AIDS Research and Reference Reagent Program, Division of AIDS, NIAID, NIH. See Scandella et al., AIDS Res. Hum. Retroviruses 9:1233-1244 (1993). Additional gp120s from HIV-1 strains IIIB and RF2 were obtained from Genetech and the National Cancer Institute, respectively. TNFα, IFNγ, and IL-1β were from Genzyme (Cambridge, Mass.), Gibco BRL (Grand Island, N.Y.) and Endogen (Woburn, Mass.), respectively.
Neuronal apoptosis in the above-described assays was assessed using a variety of techniques, e.g., staining of permeabilized cells with propidium iodide to determine apoptotic morphology, and a neuron-specific antibody (against NeuN or MAP-2) to identify cell type. In brief, cells were fixed for 5 minutes with ice-cold acetone at −20° C. and, after three washes in PBS, for 4 minutes with 2% (w/v) paraformaldehyde solution in PBS at room temperature (RT). Acetone-paraformaldehyde-fixed cells were permeabilized using 0.2% Tween 20 in PBS (PBST), and non-specific binding sites were blocked by incubation for 1 hour with a 10% solution of heat-inactivated goat serum in PBST. To specifically stain neurons, cells were then incubated for 4 hours at RT or overnight at 4° C. with 1:500 dilutions of anti-MAP-2 (Sigma) or anti-NeuN monoclonal antibody (mAb; Chemicon, Temecula, Calif.). Their respective non-specific isotype antibodies served as controls. After three washes, the cells were incubated in a secondary polyclonal antibody (pAb) conjugated either to fluorescein isothiocyanate (FITC) or to horseradish peroxidase (HRP). In the case of HRP-coupled pAb, diaminobenzidine (DAB) served as the color substrate developed by incubation in a mixture of 1 mg/ml DAB and 0.8% H2O2 at a ratio of 3:1. Cellular nuclei were subsequently stained with […] propidium iodide for 5 minutes in the dark, and then coverslips were mounted on glass slides. Experiments were replicated at least 3 times with triplicate values in each experiment. Statistical significance was judged by an analysis of variance (ANOVA) followed by a Scheffé or Bonferroni/Dunn post hoc test.

The subject of experiment [2] is neurons in rat cerebrocortical cultures (SDF-1-induced apoptosis). Description: SDF-1-induced neuronal apoptosis in rat cerebrocortical cultures. The format is cell-based, Sprague-Dawley rats. The note with it: TKP. The procedure:
(§1) The model used in the assays described below, i.e., rat cerebrocortical cultures, was prepared from embryos of Sprague-Dawley rats at day 15 to 17 of gestation. See Lei et al., Neuron 8:1087-1099 (1992) and Lipton et al., Nature 364:626-632 (1993). Cultures were used for experiments after 17 to 24 days in culture. These cultures contain neurons, astrocytes, and macrophages/microglia, as determined with specific immunolabeling. Prior to some experiments, macrophages/microglia or neurons were depleted from the cultures by exposure to 7.5 mM L-leucine methyl ester or 2 mM N-methyl-D-aspartate (NMDA), respectively. See Lipton, NeuroReport 3:913-915 (1992). Absence of macrophages/microglia or neurons in these cultures was confirmed immunocytochemically, using antibodies to ED-1 and microtubule-associated protein-2 (MAP-2), respectively. In some experiments, the Griess reaction was used to measure nitrite levels in the culture medium as an index of nitric oxide (NO) release. See Chao et al., Glia 16:276-284 (1996). […]
(§2) Neuronal apoptosis in the above-described assays was assessed using a variety of techniques, e.g., staining of permeabilized cells with propidium iodide to determine apoptotic morphology, and a neuron-specific antibody (against NeuN or MAP-2) to identify cell type. […]

The subject of experiment [3] is cytokine-activated astrocytes. Kind of experiment: NO release (nitrite, Griess reaction) by cytokine-activated astrocytes. The format is cell-based, Sprague-Dawley rats. The conditions noted are these: in the absence of macrophages/microglia. The procedure: (§3) The model used in the assays described below, i.e., rat cerebrocortical cultures, was prepared from embryos of Sprague-Dawley rats at day 15 to 17 of gestation. See Lei et al., Neuron 8:1087-1099 (1992) and Lipton et al., Nature 364:626-632 (1993). Cultures were used for experiments after 17 to 24 days in culture. These cultures contain neurons, astrocytes, and macrophages/microglia, as determined with specific immunolabeling. Prior to some experiments, macrophages/microglia or neurons were depleted from the cultures by exposure to 7.5 mM L-leucine methyl ester or 2 mM N-methyl-D-aspartate (NMDA), respectively. See Lipton, NeuroReport 3:913-915 (1992). Absence of macrophages/microglia or neurons in these cultures was confirmed immunocytochemically, using antibodies to ED-1 and microtubule-associated protein-2 (MAP-2), respectively. In some experiments, the Griess reaction was used to measure nitrite levels in the culture medium as an index of nitric oxide (NO) release. See Chao et al., Glia 16:276-284 (1996).
For orientation: Griess reagent forms a coloured azo dye with nitrite.

The subject of experiment [4] is neurons (NMDA-induced apoptosis). Kind of experiment: NMDA-induced neuronal apoptosis in cerebrocortical cultures. The format is cell-based, Sprague-Dawley rats. On the procedure: as §3, §2
Experiment [5] has as its system retinal ganglion cells (RGCs). Kind of experiment: Optic nerve axotomy model of glaucoma: RGC survival in vivo. Details: species or system Long-Evans rats. The note with it: MK801 intravitreal; 14 days post axotomy. An excerpt: As a model for studying treatment of glaucoma, damaged (axotomized) retinal ganglion cells were employed. Specifically, transection of the optic nerve close to the cell body causes apoptotic death of retinal ganglion cells (RGCs), similar to that found in glaucoma. […] Three days later, the left optic nerve was intraorbitally transected 1 mm from the globe. One day after axotomy, no remarkable change in the fluorescence pattern of RGCs was seen compared to that of controls. RGC density, as assessed by the number of fluorescently-labeled cells, began to decline between 4 and 7 days post axotomy. By 14 days, a substantial number of fluorescently-labeled RGCs appeared to have been lost. Morphologically, in whole-mounted retinas stained with cresyl violet, ganglion cell layer (GCL) of unlesioned control retinas manifest no apoptotic profiles or pyknotic nuclei. In contrast, by 10 days after axotomy, multiple degenerating cell bodies with pyknotic nuclei were apparent in the GCL, and the cell density in this layer appeared to be greatly diminished. When hydroxystilbamidine fluorescence in the GCL was quantified, in unlesioned control retinas the mean RGC density was 2533±104 cells/mm^2 (mean±SD). Within 14 days of axotomy, the mean RGC density decreased to 348±107 (14% of control).
(§4) One day after axotomy, activated (di-phosphorylated) p38 was visualized by immunocytochemistry in the RGC layer, but not in control retinas. By Western blotting, phosphorylated p38 was first detected 12 hours after axotomy and reached a maximum at 24 hours before decreasing. SB 203580 was administered intravitreally at the time of axotomy, and repeated at 5 days and 10 days.
Retrograde labeling of retinal ganglion cells. Adult male Long-Evans rats weighing 200 to 250 g were obtained from a local breeder and, for all experimental manipulations, were anesthetized with 1-2% isoflurane and 70% N2O. RGCs were retrogradely labeled with hydroxystilbamidine (Molecular Probes, Eugene, Oreg., also known as Fluoro-Gold™) to allow accurate counting of cell bodies as described in Vorwerk et al., Invest. Ophthalmol. Vis. Sci. 40:813-816. Rats were anesthetized and placed in a small stereotactic instrument. The skull was exposed and kept dry. The bregma was identified and marked, and a small window was drilled above the right hemisphere, leaving the dura intact.
Axotomy. Optic nerve axotomy was performed on the left eye 4 days after retrograde labeling. After incision of the dorsolateral conjunctiva, the lateral extraocular muscle was transected, and the optic nerve was exposed under a stereoscopic microscope. The optic nerve was then transected at a distance of about 1 mm from the eye bulb. During the operation, care was taken to avoid damage to the retinal blood supply.
(§5) Drug application. Intravitreal injections were carried out using a 33-gauge needle attached to a 25 μl syringe following pupil dilation with 1% atropine sulfate. The tip of the needle was inserted through the dorsal limbus of the eye under stereomicroscopic visualization. Injections were completed over a period of 1 min. Intravitreal injections of SB 203580 (Calbiochem, San Diego, Calif.), MK801 (Research Biochemicals International, Natick, Mass.) or control solutions (as an equal volume of saline diluent) were performed on operated eyes immediately after axotomy, and repeated 5 and 10 days post axotomy.
Quantification of axotomized RGC survival and histology. […]

Experiment [6] has as its system p38. Kind of experiment: p38 phosphorylation/activation in retina after axotomy. The format is in vivo, Long-Evans rats. The note with it: MK801 intravitreal after axotomy. The procedure:
as §4, §5
Immunohistochemistry. After enucleation, the eyes were immersed in fixative composed of 4% paraformaldehyde in phosphate-buffered saline (PBS; pH 7.4) at 4° C. Ten minutes later, the eyes were hemisected in the fixative, and the anterior segment, lens and vitreous body were discarded. The remaining posterior eyecup was kept in fresh fixative solution overnight at 4° C. The eyecup was then embedded in paraffin. […]

The subject of experiment [7] is neurons in rat cerebrocortical cultures. Kind of experiment: Neuronal apoptosis assay, chemokine alone versus control. It is filed as cell-based, Sprague-Dawley rats. The note with it: α-chemokine 20-50 nM, 24 h. On the procedure:
as §1, §2

[8] abbreviates: β-chemokine at 20 nM applied 5 min before gp120.

On to `COc1cccc(-c2cc(=O)c3ccccc3o2)c1N` [PD 98059, 2′-amino-3′-methoxyflavone], for which the “effect on gp120SF2-induced neuronal apoptosis” value in experiment [1] (PD 98059 2 μM) is given as “only SB 203580 substantially attenuated”.
For the molecule Thr-Lys-Pro [TKP], the “effect on SDF-1β-induced neuronal apoptosis” value in experiment [2] is reported as “not abrogated”. In addition, in experiment [3], the “effect on NO release by cytokine-activated astrocytes” value is given as “did not inhibit NO release”. For the same molecule, in experiment [1] (TKP 50 μM, applied 5 min before gp120), the “effect on gp120-induced neuronal apoptosis” value is recorded as “protected neurons from gp120-induced apoptosis”. Besides, the “effect on NMDA-induced neuronal apoptosis” value in experiment [4] is reported as “did not interfere”.
Turning to `C[C@]12N[C@H](Cc3ccccc31)c1ccccc12` [MK801], the “number of surviving RGCs” value in experiment [5] is given as “increased the number of surviving RGCs”. For the same molecule, the p38 phosphorylation/activation result in experiment [6] is on record as “inhibited p38 phosphorylation/activation in a dose-dependent manner”.
On to SDF-1α, for which the “increase in neuronal apoptosis compared to control” value in experiment [7] is reported as “approximately 2 fold”. The “effect on neuronal apoptosis induced by gp120” value (“effect … by gp120” below) in experiment [1] (α-chemokine at 20-50 nM) is “did not reduce neuronal damage or apoptosis”.
In the case of `S=C(S)N1CCCC1` [PDTC, pyrrolidine dithiocarbamate], the “effect on gp120SF2-induced neuronal apoptosis” value in experiment [1] (PDTC 5 μM) is given as “only SB 203580 substantially attenuated”.
Take RANTES: the “effect … by gp120” value in experiment [1] (setting [8]) is recorded as “abrogated”.

B1: MIP-1β: recombinant human MIP-1β, β-chemokine (protein, UniProt P13236 24-92, looked up)
C-C motif chemokine 4: APMGSDPPTACCFSYTARKLPRNFVVDYYETSSLCSQPAVVFQTKRSKQVCADPSESWVQEYVYDLELN
For B1, the “effect … by gp120” value in experiment [1] (setting [8]) is given as “abrogated”.

These data come from US20030078274A1, “Method of reducing neuronal injury or apoptosis” (priority 1999, published 2003).
